Experiment: Citral solution / stable suspension limit
Format: physicochemical
From the text: The choice of terpene may vary and mixtures of terpenes in an appropriate amount may be used. Thus, in one embodiment the terpene component includes one or more terpenes which contain oxygen. Citral, for example citral 95, is an oxygenated C10H16 terpene, C10H16O CAS No. 5392-40-5 (3,7-dimethyl-2,6-octadien-1-al). A stable suspension of citral can be formed up to about 2500 ppm. Citral can be made into a solution at up to about 500 ppm. A stable suspension of hollow glucan particles incorporating citral of 25 ppt citral can be made.

CC(C)=CCCC(C)=CC=O [Citral, 3,7-dimethyl-2,6-octadien-1-al]
Concentration up to which citral can be made into a solution (solution): up to 500 ppm
Concentration up to which a stable suspension of citral can be formed (stable suspension): up to 2500 ppm

From US10383329B2, “Preservatives” (Eden Research PLC, priority 2012, dated 2019)
